The text below walks through data of patent US20150191469A1, “COMPOUNDS AND METHODS FOR TREATING HIV” (priority 2012, published 2015).

What is called IC50 is the midpoint of a concentration-inhibition curve.

The test system of the experiment is HIV. The experiment is described as follows: MT4 assay: antiviral HIV activity (cell protection, cell titer glo readout at 96 hours). The experiment is classed as cell-based. Conditions: Human immunodeficiency virus 1, MT4, 96 h, MT4 cells, cell titer glo readout at 96 hours, 10 point dose response; read-out: HIV MT4 Assay IC50. The procedure, abridged: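 MT-4 cells infected with HIV, with inhibition readout by CellTiter-Glo luminescence at 96 h relative to no-compound control. Cytotoxicity measured in parallel under the same conditions. IC50 from a 10-point, 3-4-fold dilution series spanning >1000-fold, fitted with a four-parameter logistic equation.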
A general note: ATP-based viability assays read luminescence as a measure of living cells.

In the case of `Cc1nc2c(cc(-c3nnc(NCC4CCOCC4)o3)n2C)c(-c2cc(F)c3c(c2C)CCCO3)c1[C@H](OC(C)(C)C)C(=O)O` [Example 304], the half-inhibitory concentration (IC50) was found to be 40.9 nM.
To `COCCCNC(=O)c1cc2c(-c3cc(F)c4c(c3C)CCCO4)c([C@H](OC(C)(C)C)C(=O)O)c(C)nc2n1C` [Example 252] belongs 65.2 nM; to `CSCCNC(=O)c1cc2c(-c3cc(F)c4c(c3C)CCCO4)c([C@H](OC(C)(C)C)C(=O)O)c(C)nc2n1C` [Example 235], 32.4 nM.
For the molecule `Cc1nc2c(cc(C(=O)N3CCC(c4ccccc4)CC3)n2C)c(-c2cc(F)c3c(c2C)CCCO3)c1[C@H](OC(C)(C)C)C(=O)O` [Example 170], the half-inhibitory concentration (IC50) amounted to 4.2 nM.
To `Cc1nc2c(cc(-c3ccnc(-c4ccc5c(c4)C(C)(C)CO5)c3)n2C)c(-c2cc(F)c3c(c2C)CCCO3)c1[C@H](OC(C)(C)C)C(=O)O` (atropisomer, axis not shown) [Example 37] belongs 47.4 nM; to `Cc1nc2c(cc(-c3nnc(N4CCOC(C)(C)C4)o3)n2C)c(-c2cc(F)c3c(c2C)CCCO3)c1[C@H](OC(C)(C)C)C(=O)O` [Example 352], 5.5 nM.
To `Cc1nc2c(cc(-c3nc(N4CCN(C(=O)N5CCCCC5)CC4)ns3)n2C)c(-c2cc(F)c3c(c2C)CCCO3)c1[C@H](OC(C)(C)C)C(=O)O` [Example 384] belongs 5.1 nM.
The result for `Cc1nc2c(cc(-c3ccnc(CN(C)c4ccccn4)c3)n2C)c(-c2cc(F)c3c(c2C)CCCO3)c1[C@H](OC(C)(C)C)C(=O)O` [Example 77] reads 41 nM; that for `Cc1nc2c(cc(-c3nc(N4CC[C@@H](N(C)C)C4)ns3)n2C)c(-c2cc(F)c3c(c2C)CCCO3)c1[C@H](OC(C)(C)C)C(=O)O` [Example 401], 12.8 nM; that for `COC[C@H]1CCCN1Cc1cc2c(-c3cc(F)c4c(c3C)CCCO4)c([C@H](OC(C)(C)C)C(=O)O)c(C)nc2n1C` [Example 290], 48.1 nM.
Consider `Cc1nc2c(cc(C(=O)NCc3c(Cl)cccc3Cl)n2C)c(-c2cc(F)c3c(c2C)CCCO3)c1[C@H](OC(C)(C)C)C(=O)O` [Example 253], for which the IC50 turned out to be 1.9 nM.
To `Cc1nc2c(cc(CN3CCC[C@@H]3CO)n2C)c(-c2cc(F)c3c(c2C)CCCO3)c1[C@H](OC(C)(C)C)C(=O)O` [Example 295] belongs 51.2 nM.
With `COC1CCN(c2nnc(-c3cc4c(-c5cc(F)c6c(c5C)CCCO6)c([C@H](OC(C)(C)C)C(=O)O)c(C)nc4n3C)o2)CC1` [Example 303], the IC50 was found to be 3.9 nM.
To `Cc1nc2c(cc(C(=O)NCc3ccncc3)n2C)c(-c2cc(F)c3c(c2C)CCCO3)c1[C@H](OC(C)(C)C)C(=O)O` [Example 274] belongs 208 nM; to `Cc1nc2c(cc(C(=O)NCCC3CCOCC3)n2C)c(-c2cc(F)c3c(c2C)CCCO3)c1[C@H](OC(C)(C)C)C(=O)O` [Example 241], 21.2 nM; to `CCO[C@H](C(=O)O)c1c(C)nc2c(cc(-c3ccnc(-c4ccc5c(cnn5C)c4)c3)n2C)c1-c1cc(F)c2c(c1C)CCCO2` [Example 438], 4.9 nM.
To `Cc1nc2c(cc(-c3ccnc(-c4ccc5c(cnn5C)c4)c3)n2C)c(C2=CCC(C)(C)CC2)c1[C@H](OC(C)(C)C)C(=O)O` [Example 436] belongs 5.9 nM; to `Cc1nc2c(cc(-c3ccnc(-c4ccc5c(c4C)NCCO5)c3)n2C)c(-c2cc(F)c3c(c2C)CCCO3)c1[C@H](OC(C)(C)C)C(=O)O` (atropisomer, axis not shown) [Example 42], 3.2 nM; to `Cc1nc2c(cc(-c3ccnc(N4CC[C@@H](N(C)C)C4)c3)n2C)c(-c2cc(F)c3c(c2C)CCCO3)c1[C@H](OC(C)(C)C)C(=O)O` (atropisomer, axis not shown) [Example 120], 45 nM.
To `Cc1nc2c(cc(C(=O)N3CCc4ccccc43)n2C)c(-c2cc(F)c3c(c2C)CCCO3)c1[C@H](OC(C)(C)C)C(=O)O` [Example 183] belongs 33.9 nM; to `Cc1nc2c(cc(-c3nnc(N4CCC(N5CCCCC5)CC4)o3)n2C)c(-c2cc(F)c3c(c2C)CCCO3)c1[C@H](OC(C)(C)C)C(=O)O` [Example 317], 118 nM.
For the molecule `Cc1nc2c(cc(-c3ccnc(-c4ccc5[nH]c(=O)[nH]c5c4)c3)n2C)c(-c2cc(F)c3c(c2C)CCCO3)c1[C@H](OC(C)(C)C)C(=O)O` (atropisomer, axis not shown) [Example 55], the IC50 is 410 nM.
For `Cc1nc2c(cc(C(=O)N3CCN(C(=O)N(C)C)CC3)n2C)c(-c2cc(F)c3c(c2C)CCCO3)c1[C@H](OC(C)(C)C)C(=O)O` [Example 220], the IC50 turned out to be 1770 nM.
The result for `Cc1nc2c(cc(-c3nnc(N4CC5CCC(C4)O5)o3)n2C)c(-c2cc(F)c3c(c2C)CCCO3)c1[C@H](OC(C)(C)C)C(=O)O` [Example 353] reads 7 nM; that for `Cc1nc2c(cc(-c3ccnc(C(=O)N4CCN(S(C)(=O)=O)CC4)c3)n2C)c(-c2cc(F)c3c(c2C)CCCO3)c1[C@H](OC(C)(C)C)C(=O)O` (atropisomer, axis not shown) [Example 146], 487 nM.
Consider `Cc1nc2c(cc(-c3nnc(N4CCS(=O)(=O)CC4)o3)n2C)c(-c2cc(F)c3c(c2C)CCCO3)c1[C@H](OC(C)(C)C)C(=O)O` [Example 316], for which the IC50 came to 566 nM.
Consider `Cc1nc2c(cc(C(=O)N3CCN(C(=O)OCc4ccccc4)CC3)n2C)c(-c2cc(F)c3c(c2C)CCCO3)c1[C@H](OC(C)(C)C)C(=O)O` [Example 198], for which the IC50 was 26.3 nM.
The result for `Cc1ccc(N2CCN(C(=O)c3cc4c(-c5cc(F)c6c(c5C)CCCO6)c([C@H](OC(C)(C)C)C(=O)O)c(C)nc4n3C)CC2)cc1` [Example 224] reads 41.4 nM.
The result for `Cc1nc2c(cc(-c3nc(N4CCN(C5CCOCC5)CC4)no3)n2C)c(-c2cc(F)c3c(c2C)CCCO3)c1[C@H](OC(C)(C)C)C(=O)O` (atropisomer, axis not shown; (M)) [Example 27, (2S)(M)-2-(tert-butoxy)-2-(4-(8-fluoro-5-methylchroman-6-yl)-1,6-dimethyl-2-(3-(4-(tetrahydro-2H-pyran-4-yl)piperazin-1-yl)-1,2,4-oxadiazol-5-yl)-1H-pyrrolo[2,3-b]pyridin-5-yl)acetic acid] reads 4.6 nM.
With `Cc1nc2c(cc(C(=O)N[C@@H](C)c3ccccc3)n2C)c(-c2cc(F)c3c(c2C)CCCO3)c1[C@H](OC(C)(C)C)C(=O)O` [Example 210], the half-maximal inhibitory concentration (IC50) is 5 nM.
The result for `Cc1nc2c(cc(C(=O)NCCS(C)(=O)=O)n2C)c(-c2cc(F)c3c(c2C)CCCO3)c1[C@H](OC(C)(C)C)C(=O)O` [Example 236] reads 4140 nM; that for `Cc1nc2c(cc(-c3ccnc(N4C[C@H]5CC[C@@H]4C5)c3)n2C)c(-c2cc(F)c3c(c2C)CCCO3)c1[C@H](OC(C)(C)C)C(=O)O` (atropisomer, axis not shown) [Example 99], 14.8 nM; that for `Cc1nc2c(cc(-c3nnc(N4CCOC[C@@H]4C)o3)n2C)c(-c2cc(F)c3c(c2C)CCCO3)c1[C@H](OC(C)(C)C)C(=O)O` [Example 329], 13.4 nM.
The result for `CCCn1cc(-c2cc(-c3cc4c(-c5cc(F)c6c(c5C)CCCO6)c([C@H](OC(C)(C)C)C(=O)O)c(C)nc4n3C)ccn2)cn1` [Example 44] reads 14 nM; that for `Cc1nc2c(cc(C(=O)N3CCCN(C4COC4)CC3)n2C)c(-c2cc(F)c3c(c2C)CCCO3)c1[C@H](OC(C)(C)C)C(=O)O` [Example 162], 3650 nM.
